The EC50 is the midpoint of the concentration-response curve.

Here are results for six compounds from patent publication US11541028B2, “Peptide pharmaceuticals for treatment of NASH and other disorders” (Mederis Diabetes LLC, priority 2018, dated 2023).

In one assay the target is T1, human glucagon receptor (Homo sapiens, UniProt P47871).
T1 construct: host or cells: CHO cells
As to the kind of experiment: DiscoveRx LeadHunter cellular assay, cAMP stimulation, glucagon receptor in CHO cells. In kind it is cell-based.

The target in a further assay is T2, human GLP-1 receptor (Homo sapiens, UniProt P43220).
T2 construct: host or cells: CHO cells
T2 sequence (P43220 24-463): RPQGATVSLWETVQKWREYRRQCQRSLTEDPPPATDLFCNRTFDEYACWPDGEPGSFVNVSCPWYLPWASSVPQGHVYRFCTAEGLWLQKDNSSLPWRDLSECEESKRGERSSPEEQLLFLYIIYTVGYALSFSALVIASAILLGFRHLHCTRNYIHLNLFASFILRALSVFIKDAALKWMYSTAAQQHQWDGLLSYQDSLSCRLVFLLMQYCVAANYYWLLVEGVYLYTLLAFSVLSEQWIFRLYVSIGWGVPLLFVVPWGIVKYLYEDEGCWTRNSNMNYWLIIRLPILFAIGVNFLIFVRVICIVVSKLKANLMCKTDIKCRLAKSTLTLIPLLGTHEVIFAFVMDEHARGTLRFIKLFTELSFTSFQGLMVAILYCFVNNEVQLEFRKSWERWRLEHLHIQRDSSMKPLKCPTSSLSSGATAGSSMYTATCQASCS
As to the kind of experiment: DiscoveRx LeadHunter cellular assay, cAMP stimulation, GLP-1 receptor in CHO cells. In kind it is cell-based. The following applies: human GLP-1 receptor in CHO cells (DiscoveRx); read-out: EC50 cAMP GLP-1 R.

Numbered stars: 1 amine (or outer) side, 2 acyl side, 3 side chain; on linkers, the order of the positions; unused ones are H or OH. Bridge positions count the residues as written; N and C are the ends. Square brackets hold non-standard residues; d marks the D form. Side chains are listed from the residue outwards. Peptide text beside a SMILES is read from it. * marks the point of attachment. βGlcA(1-O-hexadecyl) = CCCCCCCCCCCCCCCCO[C@@H]1O[C@H](C(=O)*)[C@@H](O)[C@H](O)[C@H]1O; GlcA(1β-O-tetradecyl) = CCCCCCCCCCCCCCO[C@@H]1O[C@H](C(=O)*)[C@@H](O)[C@H](O)[C@H]1O; γGlu = O=C(O)[C@H](CCC(=O)[*:2])N[*:1]; εLys = N[C@@H](CCCCN[*:1])C(=O)[*:2]; Aib = CC(C)(N)C(=O)O

T1 sequence (P47871 26-477): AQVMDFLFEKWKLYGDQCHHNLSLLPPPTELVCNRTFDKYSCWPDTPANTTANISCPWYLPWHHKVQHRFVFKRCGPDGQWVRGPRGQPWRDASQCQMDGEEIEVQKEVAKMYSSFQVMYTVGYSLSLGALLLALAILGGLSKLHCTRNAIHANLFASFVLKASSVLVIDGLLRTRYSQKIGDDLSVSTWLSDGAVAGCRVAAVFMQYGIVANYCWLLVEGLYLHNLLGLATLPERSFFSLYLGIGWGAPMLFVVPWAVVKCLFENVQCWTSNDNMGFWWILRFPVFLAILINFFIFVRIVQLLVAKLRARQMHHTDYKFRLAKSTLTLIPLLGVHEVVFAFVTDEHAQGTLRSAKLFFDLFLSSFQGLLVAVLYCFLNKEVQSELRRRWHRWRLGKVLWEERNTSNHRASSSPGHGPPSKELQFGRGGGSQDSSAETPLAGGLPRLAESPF
Experimental for human GLP-1 receptor: (§1) A further series of cellular assays was carried out with standard cellular assays (DiscoveRx, LeadHunter assays) using readout of cAMP stimulation or arrestin activation. Compounds were weighed precisely in an amount of about 1 mg and shipped to DiscoveRx for dilution and assay.
Experimental for human glucagon receptor: as §1

`CCCCCCCCCCCCCCCCO[C@@H]1O[C@H](C(=O)NCCCC[C@H](N)C(=O)NCCCC[C@H](NC(=O)[C@H](C)NC(=O)[C@H](C)NC(=O)[C@H](CCC(N)=O)NC(=O)[C@@H]2CCCCNC(=O)CC[C@H](NC(=O)[C@H](CO)NC(=O)[C@H](Cc3ccc(O)cc3)NC(=O)[C@H](CC(=O)O)NC(=O)[C@H](CO)NC(=O)[C@@H](NC(=O)[C@H](Cc3ccccc3)NC(=O)[C@@H](NC(=O)CNC(=O)[C@H](CCC(N)=O)NC(=O)C(C)(C)NC(=O)[C@@H](N)Cc3c[nH]cn3)[C@@H](C)O)[C@@H](C)O)C(=O)N[C@@H](Cc3ccc(O)cc3)C(=O)N[C@@H](CC(C)C)C(=O)N[C@@H](CC(=O)O)C(=O)N2)C(=O)N[C@@H](CCC(=O)O)C(=O)N[C@@H](Cc2ccccc2)C(=O)N[C@H](C(=O)N[C@@H](CCC(N)=O)C(=O)N[C@@H](Cc2c[nH]c3ccccc23)C(=O)N[C@@H](CC(C)C)C(=O)N[C@@H](CC(C)C)C(=O)N[C@@H](CCC(N)=O)C(=O)N[C@H](C(N)=O)[C@@H](C)O)[C@@H](C)CC)[C@@H](O)[C@H](O)[C@H]1O` [EU-A1785] (H-H[Aib]QGTFTSDYSEYLDKQAAK([εLys-βGlcA(1-O-hexadecyl)])EFIQWLLQT-NH2; lactam 12-16; N-terminus assumed): the values for the EC50 at human glucagon receptor and at human GLP-1 receptor were 5.14 nM and 0.239 nM, respectively.
With `CCCCCCCCCCCCCCO[C@@H]1O[C@H](C(=O)N[C@@H](CCC(=O)NCCCC[C@H](NC(=O)[C@H](C)NC(=O)[C@H](C)NC(=O)[C@H](CCC(N)=O)NC(=O)[C@@H]2CCCCNC(=O)CC[C@H](NC(=O)[C@H](CO)NC(=O)[C@H](Cc3ccc(O)cc3)NC(=O)[C@H](CC(=O)O)NC(=O)[C@H](CO)NC(=O)[C@@H](NC(=O)[C@H](Cc3ccccc3)NC(=O)[C@@H](NC(=O)CNC(=O)[C@H](CCC(N)=O)NC(=O)C(C)(C)NC(=O)[C@@H](N)Cc3c[nH]cn3)[C@@H](C)O)[C@@H](C)O)C(=O)N[C@@H](Cc3ccc(O)cc3)C(=O)N[C@@H](CC(C)C)C(=O)N[C@@H](CC(=O)O)C(=O)N2)C(=O)N[C@@H](CCC(=O)O)C(=O)N[C@@H](Cc2ccccc2)C(=O)N[C@H](C(=O)N[C@@H](CCC(N)=O)C(=O)N[C@@H](Cc2c[nH]c3ccccc23)C(=O)N[C@@H](CC(C)C)C(=O)N[C@@H](CC(C)C)C(=O)N[C@@H](CCC(N)=O)C(=O)N[C@H](C(N)=O)[C@@H](C)O)[C@@H](C)CC)C(=O)O)[C@@H](O)[C@H](O)[C@H]1O` [EU-A1787] (H-H[Aib]QGTFTSDYSEYLDKQAAK([γGlu-GlcA(1β-O-tetradecyl)])EFIQWLLQT-NH2; lactam 12-16; N-terminus assumed), the EC50 stood at 10 nM at human glucagon receptor and 0.246 nM on human GLP-1 receptor.
In the same order, the values of `CCCCCCCCCCCCCCCCO[C@@H]1O[C@H](C(=O)N[C@@H](CCC(=O)NCCCC[C@H](NC(=O)[C@H](C)NC(=O)[C@H](C)NC(=O)[C@H](CCC(N)=O)NC(=O)[C@@H]2CCCCNC(=O)CC[C@H](NC(=O)[C@H](CO)NC(=O)[C@H](Cc3ccc(O)cc3)NC(=O)[C@H](CC(=O)O)NC(=O)[C@H](CO)NC(=O)[C@@H](NC(=O)[C@H](Cc3ccccc3)NC(=O)[C@@H](NC(=O)CNC(=O)[C@H](CCC(N)=O)NC(=O)C(C)(C)NC(=O)[C@@H](N)Cc3c[nH]cn3)[C@@H](C)O)[C@@H](C)O)C(=O)N[C@@H](Cc3ccc(O)cc3)C(=O)N[C@@H](CC(C)C)C(=O)N[C@@H](CC(=O)O)C(=O)N2)C(=O)N[C@@H](CCC(=O)O)C(=O)N[C@@H](Cc2ccccc2)C(=O)N[C@H](C(=O)N[C@@H](CCC(N)=O)C(=O)N[C@@H](Cc2c[nH]c3ccccc23)C(=O)N[C@@H](CC(C)C)C(=O)N[C@@H](CC(C)C)C(=O)N[C@@H](CCC(N)=O)C(=O)N[C@H](C(N)=O)[C@@H](C)O)[C@@H](C)CC)C(=O)O)[C@@H](O)[C@H](O)[C@H]1O` [EU-A1788] (H-H[Aib]QGTFTSDYSEYLDKQAAK([γGlu-βGlcA(1-O-hexadecyl)])EFIQWLLQT-NH2; lactam 12-16; N-terminus assumed) are 10 nM and 0.232 nM.
On to `CCCCCCCCCCCCCCO[C@@H]1O[C@H](C(=O)NCCCC[C@@H]2NC(=O)[C@@H](NC(=O)[C@H](CC(=O)O)NC(=O)[C@H](CC(C)C)NC(=O)[C@H](Cc3ccc(O)cc3)NC(=O)[C@H](CCCCN)NC(=O)[C@H](CO)NC(=O)[C@H](Cc3ccc(O)cc3)NC(=O)[C@H](CC(=O)O)NC(=O)[C@H](CO)NC(=O)[C@@H](NC(=O)[C@H](Cc3ccccc3)NC(=O)[C@@H](NC(=O)CNC(=O)[C@H](CCC(N)=O)NC(=O)C(C)(C)NC(=O)[C@@H](N)Cc3c[nH]cn3)[C@@H](C)O)[C@@H](C)O)CCC(=O)NCCCC[C@@H](C(=O)N[C@@H](CCC(=O)O)C(=O)N[C@@H](Cc3ccccc3)C(=O)N[C@H](C(=O)N[C@@H](CCC(=O)O)C(=O)N[C@@H](Cc3c[nH]c4ccccc34)C(=O)N[C@@H](CC(C)C)C(=O)N[C@@H](CC(C)C)C(=O)N[C@@H](CCC(N)=O)C(=O)N[C@H](C(N)=O)[C@@H](C)O)[C@@H](C)CC)NC(=O)[C@H](C)NC(=O)[C@H](C)NC2=O)[C@@H](O)[C@H](O)[C@H]1O` [EU-A1841] (H-H[Aib]QGTFTSDYSKYLDEK(GlcA(1β-O-tetradecyl))AAKEFIEWLLQT-NH2; lactam 16-20; N-terminus assumed), for which the concentration for a half-maximal effect (EC50) on human glucagon receptor is 0.475 nM; on human GLP-1 receptor, 0.316 nM.
In the same order, the values of `CCCCCCCCCCCCCCCCO[C@@H]1O[C@H](C(=O)NCCCC[C@@H]2NC(=O)[C@@H](NC(=O)[C@H](CC(=O)O)NC(=O)[C@H](CC(C)C)NC(=O)[C@H](Cc3ccc(O)cc3)NC(=O)[C@H](CCCCN)NC(=O)[C@H](CO)NC(=O)[C@H](Cc3ccc(O)cc3)NC(=O)[C@H](CC(=O)O)NC(=O)[C@H](CO)NC(=O)[C@@H](NC(=O)[C@H](Cc3ccccc3)NC(=O)[C@@H](NC(=O)CNC(=O)[C@H](CCC(N)=O)NC(=O)C(C)(C)NC(=O)[C@@H](N)Cc3c[nH]cn3)[C@@H](C)O)[C@@H](C)O)CCC(=O)NCCCC[C@@H](C(=O)N[C@@H](CCC(=O)O)C(=O)N[C@@H](Cc3ccccc3)C(=O)N[C@H](C(=O)N[C@@H](CCC(=O)O)C(=O)N[C@@H](Cc3c[nH]c4ccccc34)C(=O)N[C@@H](CC(C)C)C(=O)N[C@@H](CC(C)C)C(=O)N[C@@H](CCC(N)=O)C(=O)N[C@H](C(N)=O)[C@@H](C)O)[C@@H](C)CC)NC(=O)[C@H](C)NC(=O)[C@H](C)NC2=O)[C@@H](O)[C@H](O)[C@H]1O` [EU-A1842] (H-H[Aib]QGTFTSDYSKYLDEK(βGlcA(1-O-hexadecyl))AAKEFIEWLLQT-NH2; lactam 16-20; N-terminus assumed) are 2.11 nM and 1.21 nM.
Turning to `CCCCCCCCCCCCCCO[C@@H]1O[C@H](C(=O)NCCCC[C@H](NC(=O)[C@H](C)NC(=O)[C@H](C)NC(=O)[C@H](CCC(N)=O)NC(=O)[C@H](CO)NC(=O)[C@H](CC(=O)O)NC(=O)[C@@H]2CCCCNC(=O)CC[C@H](NC(=O)[C@H](CC(=O)O)NC(=O)[C@H](CO)NC(=O)[C@@H](NC(=O)[C@H](Cc3ccccc3)NC(=O)[C@@H](NC(=O)CNC(=O)[C@H](CCC(N)=O)NC(=O)C(C)(C)NC(=O)[C@@H](N)Cc3c[nH]cn3)[C@@H](C)O)[C@@H](C)O)C(=O)N[C@@H](CO)C(=O)N[C@@H](CCCCN)C(=O)N[C@@H](Cc3ccc(O)cc3)C(=O)N2)C(=O)N[C@@H](CCC(=O)O)C(=O)N[C@@H](Cc2ccccc2)C(=O)N[C@H](C(=O)N[C@@H](CCC(=O)O)C(=O)N[C@@H](Cc2c[nH]c3ccccc23)C(=O)N[C@@H](CC(C)C)C(=O)N[C@@H](CC(C)C)C(=O)N[C@@H](CCC(N)=O)C(=O)N[C@H](C(N)=O)[C@@H](C)O)[C@@H](C)CC)[C@@H](O)[C@H](O)[C@H]1O` [EU-A1847] (H-H[Aib]QGTFTSDESKYKDSQAAK(GlcA(1β-O-tetradecyl))EFIEWLLQT-NH2; lactam 10-14; N-terminus assumed), the EC50 worked out at 1.95 nM at human glucagon receptor and 0.032 nM at human GLP-1 receptor.
